Assay results from patent US20240251785A1, “SMALL MOLECULE ANTAGONISTS AND AGONISTS OF ARTHROPOD KININ RECEPTORS FOR PEST CONTROL” (The Texas A&M University System, priority 2021, published 2024).
Read-outs that look alike come from different tables or passages of the source.

Experiments:
[1] = biological target: recombinant tick kinin receptor (BMLK3) (Rhipicephalus microplus, UniProt Q9NHA4); assay: Dose-response dual-addition calcium fluorescence assay on BMLK3 cells; format: cell-based; details: for inhibition at 12 µM: read-out: Inhibitory Efficacy at 12 μM; for activity type in dose-response assay, in words: Rhimi-K-1 1 μmol L^−1; for validation mark in dose-response assay: Table 3
Chain of recombinant tick kinin receptor (BMLK3) (Q9NHA4 entry or part of it): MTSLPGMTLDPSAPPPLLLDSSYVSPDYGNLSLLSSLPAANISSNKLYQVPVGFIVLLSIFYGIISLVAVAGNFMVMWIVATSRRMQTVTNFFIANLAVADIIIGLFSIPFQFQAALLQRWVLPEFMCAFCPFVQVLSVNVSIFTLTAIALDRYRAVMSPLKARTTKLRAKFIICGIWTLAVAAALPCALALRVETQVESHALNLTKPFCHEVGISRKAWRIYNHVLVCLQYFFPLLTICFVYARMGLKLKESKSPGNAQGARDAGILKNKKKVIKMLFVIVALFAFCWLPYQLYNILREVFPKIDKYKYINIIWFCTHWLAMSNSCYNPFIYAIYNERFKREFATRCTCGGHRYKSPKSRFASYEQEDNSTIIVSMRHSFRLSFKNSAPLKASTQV

[2] = tested on: vector-only (V/O) CHO-K1 cells; assay: Dose-response dual-addition calcium fluorescence assay on vector-only cells; format: cell-based
[3] = tested on: Human dermal fibroblasts (HDF) cells; assay: Cytotoxicity assay (resazurin); format: cell-based
[4] = tested on: R. microplus kinin receptor; assay: High-throughput dual-addition calcium fluorescence screen on BMLK3 cells; format: cell-based, Rhipicephalus microplus; details: for antagonist Io (%): compound 2 μmol L^−1, 5 min, then FFFSWGa 500 nmol L^−1; for agonist NPA (%): compound 2 μmol L^−1, first addition, relative to FFFSWGa 500 nmol L^−1
[5] = first addition, 20 concentrations 28 nM-25 μM, read-out: BMLK3 EC50
[6] = second addition Rhimi-K-1 1 μmol L^−1, read-out: BMLK3 IC50
[7] = summary of 36 validated antagonist hits, BMLK3 cells, read-out: BMLK3 EC50
[8] = summary of 36 validated antagonist hits, BMLK3 cells, read-out: BMLK3 IC50
[9] = V/O cells, second addition Rhimi-K-1 1 μmol L^−1, read-out: V/O antagonist IC50
[10] = summary of 36 validated antagonist hits, vector-only cell (V/O)
[11] = Human dermal fibroblasts cells, tested at 20 μcool L^−1
[12] = Cricetulus griseus, CHO-K1, summary of 36 validated antagonist hits, vector-only cell (V/O)
[13] = virtual hit molecules, dual-addition assay, vector-only cell (V/O)
[14] = virtual hit molecules, dual-addition assay, vector-only cell (V/O), read-out: V/O antagonist IC50
[15] = virtual hit molecules, dual-addition assay, recombinant tick kinin receptor (BMLK3) cells, read-out: BMLK3 EC50
[16] = virtual hit molecules, dual-addition assay, recombinant tick kinin receptor (BMLK3) cells, read-out: BMLK3 antagonist IC50
[17] = Table 5 analogs, first addition, read-out: BMLK3 EC50
[18] = Table 5 analogs, second addition Rhimi-K-1 1 μmol L^−1, read-out: BMLK3 antagonist IC50
[19] = Table 5 analogs, V/O cells, read-out: V/O antagonist IC50

SMILES | Inhibitory Efficacy at 12 μM ([1]; 12 μM, BMLK3 cells) [%] | EC50 [1, 5] [µM] | IC50 [1, 6] [µM] | EC50 [1, 7] [µM] | IC50 [1, 8] [µM] | EC50 ([2]; V/O cells, first addition) [µM] | IC50 [2, 9] [µM] | EC50 [2, 10] [µM] | IC50 [2, 10] [µM] | HDF average % growth inhibition [3, 11] [%] | validation mark in dose-response assay [1] | other results
O=C(O)COc1ccc(Br)cc1/C=N/Nc1cccc2cccnc12 [SACC-0126875] | 59.47 | 5.73 | 8.51 | 5.73 | 8.51 | 4.61 | > 25 | 4.61 | > 25 | 7.477 | – | –
C/N=c1\[nH]c2cc([N+](=O)[O-])c([N+](=O)[O-])cc2[nH]\c1=N\C [SACC-0010666] | – | – | – | – | – | – | – | – | – | – | – | EC50 [1]: 0.914 µM; IC50 [1]: 0.808 µM; inhibition at 12 µM [1]: 4.47%; EC50 ([2]; Cricetulus griseus, CHO-K1, V/O cells, first addition): 1.35 µM; IC50 ([2]; Cricetulus griseus, CHO-K1, V/O cells, second addition Rhimi-K-1 1 μmol L^−1, read-out: V/O antagonist IC50): 14.9 µM; IC50 [2, 12]: 14.9 µM; HDF average % growth inhibition ([3]; human, 48 h, 20 μmol L^−1): −4.62%
CCCC[n+]1c(/C=C2/C=CN(CC)c3ccc(C)cc32)ccc2ccccc21 [SACC-0048555] | 107.39 | 8.88 | 1.51 | 8.88 | 1.51 | 12.8 | 3.59 | 12.8 | 3.59 | −9.767 | – | antagonist Io (%) [4]: 54%; activity type in dose-response assay, in words ([1]; BMLK3 cells): full agonist
Cc1ccc(-c2csc3ncnc(NCc4ccco4)c23)cc1 [SACC-0033457] | 55.73 | 0.122 | 14.8 | 0.122 | – | 11.5 | 0.679 | – | – | 8.023 | – | antagonist Io (%) [4]: 63%
Cc1csc2ncnc(NCCc3ccc(Cl)cc3)c12 [SACC-0039590] | 69.87 | – | – | – | – | – | – | 1.63 | 5.58 | −13.23 | – | EC50 [2, 13]: 1.63 µM; IC50 [2, 14]: 5.58 µM
COc1ccc(S(=O)(=O)Nc2ccc(O)c(Sc3nc4ccccc4s3)c2)cc1 [SACC-0089495] | – | – | – | – | – | – | – | – | – | −2.817 | – | inhibition at 12 µM ([1]; 12 μM, BMLK3 cells): 71.3%; EC50 [1, 15]: 3.04 µM; IC50 [1, 16]: 6.53 µM; IC50 [2, 12]: 5.99 µM; EC50 ([2]; Cricetulus griseus, CHO-K1, virtual hit molecules, dual-addition assay, vector-only cell (V/O)): 9.06 µM; IC50 ([2]; Cricetulus griseus, CHO-K1, virtual hit molecules, dual-addition assay, vector-only cell (V/O), read-out: V/O antagonist IC50): 5.99 µM
Cc1ccc(S(=O)(=O)Nc2ccc3nc(N)sc3c2)cc1 [SACC-0034373] | 26.16 | – | – | 1.96 | 6.22 | – | – | 2.49 | > 25 | −7 | – | EC50 [1, 15]: 1.96 µM; IC50 [1, 16]: 6.22 µM; EC50 [2, 13]: 2.49 µM; IC50 [2, 14]: > 25 µM
CCN1C=C/C(=C\C=C\c2cc[n+](CC)c3ccccc23)c2ccccc21 [SACC-0054132] | 37.34 | – | – | < 0.0285 | 3.69 | – | – | 2.56 | 0.207 | 9.037 | – | EC50 [1, 15]: < 0.0285 µM; IC50 [1, 16]: 3.69 µM; EC50 [2, 13]: 2.56 µM; IC50 [2, 14]: 0.207 µM
O=C1C=CC(Nc2ccc([N+](=O)[O-])cc2)C1Nc1ccc([N+](=O)[O-])cc1 (stereo not drawn) [SACC-0121252] | 42.68 | 0.177 | > 25 | 0.177 | > 25 | > 25 | 2.53 | > 25 | 2.53 | 4.83 | – | –
Cc1ccc(C=C2SC(=S)N(NS(=O)(=O)c3ccc(C)cc3)C2=O)cc1 [SACC-0412061] | 48.16 | – | – | 0.978 | 0.509 | – | – | 5.5 | 2.71 | −1.013 | – | activity type in dose-response assay, in words ([1]; BMLK3 cells): partial antagonists; EC50 [1, 17]: 0.978 µM; IC50 [1, 18]: 0.509 µM; EC50 ([2]; Table 5 analogs, V/O cells): 5.5 µM; IC50 [2, 19]: 2.71 µM
NC(N)=N/C(N)=N\c1ccc(Br)cc1 [SACC-0108986] | – | 0.684 | 0.363 | – | – | 0.132 | 3.87 | – | – | – | *** (molecules which are either off-target or of low activity (<25 μM)) | antagonist Io (%) [4]: 53%
CSc1nc2ccc(NS(=O)(=O)c3ccc(Cl)s3)cc2s1 [SACC-0099442] | 71.31 | – | – | 5.4 | 7.17 | – | – | 10.8 | 1.12 | −1.16 | – | activity type in dose-response assay, in words ([1]; BMLK3 cells): full agonist; EC50 [1, 15]: 5.4 µM; IC50 [1, 16]: 7.17 µM; EC50 [2, 13]: 10.8 µM; IC50 [2, 14]: 1.12 µM
Cc1cc(C(C)(C)C)cc(C)c1CSC(=N)N [SACC-0029825] | – | 6.95 | < 0.0285 | – | – | 5.46 | 9.81 | – | – | – | *** (molecules which are either off-target or of low activity (<25 μM)) | agonist NPA (%) [4]: 70%
CCCCCCCCn1c2c(c(=N)c3c1CCC3)CCCC2 [SACC-0050177] | 35.48 | 7.08 | > 25 | 7.08 | > 25 | > 25 | 12.3 | > 25 | 12.3 | 38.55 | – | –
Cc1ccc(-c2ccsc2C(=O)Nc2ccc3c(c2)CCO3)cc1 [SACC-0033336] | – | 2.95 | 7.17 | – | – | 4.34 | > 25 | – | – | – | *** (molecules which are either off-target or of low activity (<25 μM)) | agonist NPA (%) [4]: 51%
CCCc1cc(-c2cc(O)n3nc(C)c(CC)c3n2)no1 [SACC-0048722] | – | 4.17 | > 25 | – | – | < 0.0285 | 4.32 | – | – | – | *** (molecules which are either off-target or of low activity (<25 μM)) | antagonist Io (%) [4]: 56%
Cc1ccc(S(=O)(=O)NN2C(=O)C(=Cc3ccc(F)cc3)SC2=S)cc1 [SACC-0412063] | 0.61 | – | – | 24.2 | 0.627 | – | – | 1.21 | > 25 | 2.277 | – | activity type in dose-response assay, in words ([1]; BMLK3 cells): very weak partial antagonists; EC50 [1, 17]: 24.2 µM; IC50 [1, 18]: 0.627 µM; EC50 ([2]; Table 5 analogs, V/O cells): 1.21 µM; IC50 [2, 19]: > 25 µM
C=C(NNC(=S)Nc1c(C)cccc1C)c1cc2ccccc2o1 [SACC-0037245] | – | 5.78 | 4.43 | – | – | < 0.0285 | 0.605 | – | – | – | *** (molecules which are either off-target or of low activity (<25 μM)) | antagonist Io (%) [4]: 63%
CN1c2ccccc2Oc2nnc(Cl)cc21 [SACC-0075838] | – | 4.37 | 0.0845 | – | – | > 25 | > 25 | – | – | – | *** (molecules which are either off-target or of low activity (<25 μM)) | agonist NPA (%) [4]: 143%
CCNc1nc(NCc2ccco2)c2ccccc2n1 [SACC-0055093] | – | 0.898 | 10.3 | – | – | 0.683 | 0.376 | – | – | – | *** (molecules which are either off-target or of low activity (<25 μM)) | agonist NPA (%) [4]: 128%
COC(=O)c1cc2c(s1)Oc1cc(C(F)(F)F)ccc1C(=S)N2 [SACC-0081272] | – | 1.48 | < 0.0285 | – | – | 0.0485 | > 25 | – | – | – | *** (molecules which are either off-target or of low activity (<25 μM)) | antagonist Io (%) [4]: 74%
Cc1cccc(NC(=O)c2c(F)c(F)c(F)c(F)c2F)n1 [SACC-0037442] | – | 7.77 | < 0.0285 | – | – | > 25 | 7.18 | – | – | – | *** (molecules which are either off-target or of low activity (<25 μM)) | antagonist Io (%) [4]: 52%
Cc1nc(C)c(C(=O)N(Cc2ccco2)C2CCN(c3ccc4c(c3)OCO4)CC2)s1 [SACC-0040154] | – | 13.2 | 3.09 | – | – | 0.12 | 1.24 | – | – | – | *** (molecules which are either off-target or of low activity (<25 μM)) | agonist NPA (%) [4]: 81%
CCN(CC)c1ccc2cc(C(N)=O)c(=NNC(=O)c3cccs3)oc2c1 [SACC-0052578] | – | > 25 | > 25 | – | – | > 25 | > 25 | – | – | – | *** (molecules which are either off-target or of low activity (<25 μM)) | agonist NPA (%) [4]: 166%
CC1=C(Cc2ccccc2)C(C)Nc2ccccc2N1 (stereo not drawn) [SACC-0026915] | – | 0.662 | 4.6 | – | – | 1 | > 25 | – | – | – | *** (molecules which are either off-target or of low activity (<25 μM)) | agonist NPA (%) [4]: 111%
